Measured values taken from PubChem BioAssay AID1390 (Sanford-Burnham Center for Chemical Genomics, 2008).
The source made the active and inactive calls.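 The calls were made as follows: active = no band for the ATF-6 stress protein on the immunoblot of thapsigargin-stressed cell lysates; inactive = ATF-6 band still present, cleavage not blocked.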

Test system: CSM14.1 cells, thapsigargin, ATF-6 Western blot
Assay: ATF-6 protein induction inhibitors, late-stage follow-up, mechanism study for ER stress cell death inhibitors, cell-based, thapsigargin, Western blot (AID 1390)

For COc1ccc(C2CC(=O)C3=C(C2)Nc2ccccc2NC3c2cccc(C(F)(F)F)c2)cc1OC (stereo unspecified), the outcome was “inactive”.
COc1ccc(C2CC(=O)C3=C(C2)Nc2ccccc2NC3c2cccc(Oc3ccccc3)c2)cc1OC (stereo unspecified) was tested, and the outcome was “inactive”.
With CSc1ccc(C2Nc3ccccc3NC3=C2C(=O)CC(c2ccccc2)C3)cc1 (stereo unspecified) the outcome was “inactive”.
For CC1(C)CC(=O)C2=C(C1)Nc1ccccc1NC2c1ccc(-c2ccccc2)cc1 (stereo unspecified), the outcome was “inactive”.
For CCCOc1ccc(C2Nc3ccccc3NC3=C2C(=O)CC(c2ccc(OC)c(OC)c2)C3)cc1 (stereo unspecified), the outcome was “inactive”.
In the case of COc1ccc(C2CC(=O)C3=C(C2)Nc2ccccc2NC3c2cc(C)ccc2C)cc1 (stereo unspecified), the outcome is reported as “inactive”.
In the case of CCOc1cc(C2Nc3ccccc3NC3=C2C(=O)CC(c2ccc(OC)cc2)C3)cc(Cl)c1O (stereo unspecified), the outcome is reported as “inactive”.
In the case of COc1ccc(C2CC(=O)C3=C(C2)Nc2ccccc2NC3c2cccc(Br)c2)cc1OC (stereo unspecified), the outcome is reported as “inactive”.
For O=C1CC(c2ccccc2)CC2=C1C(c1c(F)cccc1Cl)Nc1ccccc1N2 (stereo unspecified), the outcome was “inactive”.
In the case of CCOc1cccc(C2Nc3ccccc3NC3=C2C(=O)CC(c2ccc(OC)cc2)C3)c1 (stereo unspecified), the outcome is reported as “inactive”.
With COc1ccc(C2CC(=O)C3=C(C2)Nc2ccccc2NC3c2ccccc2C(F)(F)F)cc1OC (stereo unspecified) the outcome was “inactive”.
